Measurements taken from ChEMBL document CHEMBL1201862, “PubChem BioAssay data set” (2004).
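How tested: cells in 96-well plates exposed to compound for 48 hours at five concentrations. Here, GI50 denotes the concentration required for 50% inhibition of growth.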 The source made the active and inactive calls. No stated cut-off is given here; in the data, active = GI50 up to about 1.1 µM and inactive = higher.

Columns and labels:
Assay in all cases: inhibition of tumour cell growth, NCI panel, 48 h
[1] = tested on: LXFL 529
[2] = tested on: DLD-1
[3] = tested on: HOP-18
[4] = tested on: XF498
[5] = tested on: DMS-114
[6] = tested on: M19-MEL
[7] = tested on: KM-20L2
[8] = tested on: RXF 631
[9] = tested on: SNB-78

Measured: GI50

Cc1[nH]c2c(C)cccc2c1C1Cc2ccccc2N1 (configuration not stated)
inactive: [1] 17.6 µM | [2] 28.8 µM | [3] 17.8 µM | [4] 21.1 µM | [5] 18.2 µM | [6] 21.7 µM | [7] 17.1 µM

N#CC(C(=N/NC(N)=S)/C(=N\NC(N)=S)C(C#N)c1ccccc1)c1ccccc1 (configuration not stated)
inactive: [8] > 10 µM | [1] > 10 µM | [2] > 10 µM | [3] > 10 µM | [4] > 10 µM | [9] > 10 µM | [5] > 10 µM | [6] > 10 µM | [7] > 10 µM

CCOC(=O)C(=O)Nc1nc2ccc(C)cc2s1
inactive: [8] > 100 µM | [1] > 100 µM | [2] > 100 µM | [4] > 100 µM | [9] 87.7 µM | [5] > 100 µM | [6] > 100 µM | [7] > 100 µM

COc1ccc(NC(=O)c2oc3cc(O)ccc3c(=O)c2C)c([N+](=O)[O-])c1
inactive: [1] > 100 µM | [2] > 100 µM | [3] > 100 µM | [4] > 100 µM | [9] > 100 µM | [5] > 100 µM | [6] > 100 µM | [7] > 100 µM

COc1cc2noc(-c3ccccc3)c2cc1OC
inactive: [8] 20.4 µM | [1] 68.4 µM | [2] 64 µM | [3] > 100 µM | [9] 73.5 µM | [5] 35.9 µM | [6] 89.5 µM | [7] 37.4 µM

COc1ccc(C(Cc2cc(OC)c(OC)c(OC)c2)C(=O)O)cc1 (configuration not stated)
inactive: [8] > 100 µM | [2] 51.1 µM | [3] > 100 µM | [4] 40.5 µM | [9] 60.1 µM | [5] 41 µM | [6] 45.7 µM | [7] 56 µM

CCOC(=O)C(CCCNC(=O)OC(C)(C)C)N(Cc1ccc(OC)cc1OC)C(=O)CC(=O)CP(=O)(OCC)OCC (configuration not stated)
inactive: [8] > 100 µM | [1] > 100 µM | [2] > 100 µM | [3] > 100 µM | [5] 21 µM | [6] > 100 µM | [7] > 100 µM

CCn1c2ccccc2c2c(-c3ccccc3)cc3c(c21)C(=O)N(c1ccccc1)C3=O
inactive: [1] > 100 µM | [2] > 100 µM | [4] > 100 µM | [9] > 100 µM | [5] > 100 µM | [6] > 100 µM | [7] > 100 µM

Cc1c(CC/C(=N\Nc2ccc([N+](=O)[O-])cc2[N+](=O)[O-])c2ccccc2)c2ccccc2n1C
inactive: [8] > 100 µM | [1] > 100 µM | [2] > 100 µM | [4] > 100 µM | [9] > 100 µM | [5] > 100 µM | [6] > 100 µM | [7] > 100 µM

Cc1cc(Br)ccc1NC1=CC(=O)C(=O)c2ccccc21
inactive: [1] 55.7 µM | [2] > 100 µM | [3] 16 µM | [4] 31.6 µM | [9] > 100 µM | [5] 19.8 µM | [6] 15.2 µM | [7] > 100 µM

COC(=O)C1=C(c2cc(OC)c(OC)c(OC)c2)O[C@H](c2ccc3c(c2)OCO3)[C@H]1COC(C)=O
inactive: [8] 42.3 µM | [1] 20.3 µM | [2] 26.3 µM | [3] 26.7 µM | [4] 33.6 µM | [9] 26.7 µM | [6] 20.7 µM | [7] 30.3 µM

CCOC(=O)C(C(=O)OCC)=c1sc(=C(C(=O)OCC)C(=O)OCC)s1
inactive: [1] > 100 µM | [2] > 100 µM | [9] > 100 µM | [6] > 100 µM | [7] > 100 µM

CC(=O)Nc1ccc(C2[C@H]3C(=O)N(c4ccc(Cc5ccc(N6C(=O)[C@@H]7ON(c8ccccc8)C(c8ccc(NC(C)=O)cc8)[C@@H]7C6=O)cc5)cc4)C(=O)[C@H]3ON2c2ccccc2)cc1 (some centres not stated)
inactive: [1] > 100 µM | [2] > 100 µM | [3] > 100 µM | [9] > 100 µM | [5] > 100 µM | [6] 44.2 µM | [7] > 100 µM

CN1CCc2ccccc2C(C(=O)c2ccc3c(c2)OCO3)C1=O (configuration not stated)
inactive: [8] > 100 µM | [1] > 100 µM | [2] > 100 µM | [3] > 100 µM | [4] 70.8 µM | [5] 39.3 µM | [6] > 100 µM | [7] > 100 µM

COc1ccc(S(=O)(=O)N/N=C/CN2C(=O)c3ccccc3C2=O)cc1
inactive: [1] > 100 µM | [2] > 100 µM | [4] > 100 µM | [6] > 100 µM | [7] > 100 µM

O=C(CSc1nnc(Cc2ccccc2)o1)Nc1ccc(Cl)cc1[N+](=O)[O-]
inactive: [1] 17.1 µM | [3] 14.7 µM | [4] 17.5 µM | [9] 20 µM | [6] 17 µM | [7] 22.5 µM

O=C1c2ccccc2N2OC3(N4CCCC4)CCCCC3C12c1ccccc1 (configuration not stated)
inactive: [1] 14.5 µM | [2] 20 µM | [3] > 100 µM | [4] 22.4 µM | [9] 16.6 µM | [5] 15.2 µM | [6] 10.1 µM | [7] 43.5 µM

COC(=O)/C=C1/CCC(C(=O)OC)N1 (configuration not stated)
inactive: [1] > 100 µM | [2] > 100 µM | [4] > 100 µM | [9] > 100 µM | [5] > 100 µM | [6] > 100 µM | [7] > 100 µM

CCOC(=O)CNC(SC)=C(C#N)C#N
inactive: [1] > 100 µM | [2] > 100 µM | [4] > 100 µM | [9] > 100 µM | [5] > 100 µM | [6] > 100 µM | [7] > 100 µM

COCC1N=C(c2cc(OC)c(OC)c(OC)c2-c2cc3c(cc2C2OCCCO2)OCO3)O[C@H]1c1ccccc1 (some centres not stated)
inactive: [2] > 100 µM | [5] > 100 µM | [6] > 100 µM | [7] > 100 µM

O=C1C=C(Nc2ccccc2C(=O)c2ccccc2)c2ccccc2C1=O
inactive: [1] > 100 µM | [2] > 100 µM | [3] > 100 µM | [9] > 100 µM | [5] 36.1 µM | [6] 9.14 µM | [7] > 100 µM

CC(=O)OCc1c(O)nc2c(c1O)-c1ccccc1CC2
inactive: [8] 69.5 µM | [1] 60 µM | [2] 71.9 µM | [3] 129 µM | [4] 56.5 µM | [5] 67.8 µM | [6] 54.3 µM | [7] 106 µM

CCCCCCCCCCCCCC(=O)NCC(OCC)OCC
inactive: [1] > 100 µM | [2] > 100 µM | [3] > 100 µM | [4] > 100 µM | [9] > 100 µM | [5] > 100 µM | [6] > 100 µM | [7] > 100 µM

COc1ccc(N2C(=O)/C(=C/c3ccc(N(CCC#N)CCC#N)cc3C)N=C2c2cc([N+](=O)[O-])ccc2Cl)cc1
inactive: [1] 7.53 µM | [2] 4.51 µM | [3] > 100 µM | [4] 2.34 µM | [9] 6.9 µM | [5] 3.32 µM | [6] 17.1 µM | [7] 2.31 µM

CCOC(=O)NNC(=O)NC12CC3CC(CC(C3)C1)C2
inactive: [1] > 100 µM | [2] > 100 µM | [3] > 100 µM | [4] > 100 µM | [9] > 100 µM | [5] > 100 µM | [6] > 100 µM | [7] > 100 µM
